From US20240398828A1, “HETERO-ATOM CONTAINING COMPOUNDS AND USES THEREOF” (Kumquat Biosciences Inc., priority 2021, published 2024)

What was measured:
PTPN1 (i.e., PTP1B) = biological target: T1, PTPN1 (i.e., PTP1B) (Homo sapiens, UniProt P18031); assay: Phosphatase activity assay (DiFMUP substrate), PTP1B; type: biochemical; conditions: compounds binned ≤1 uM or >1 uM
T1 sequence (P18031 1-435): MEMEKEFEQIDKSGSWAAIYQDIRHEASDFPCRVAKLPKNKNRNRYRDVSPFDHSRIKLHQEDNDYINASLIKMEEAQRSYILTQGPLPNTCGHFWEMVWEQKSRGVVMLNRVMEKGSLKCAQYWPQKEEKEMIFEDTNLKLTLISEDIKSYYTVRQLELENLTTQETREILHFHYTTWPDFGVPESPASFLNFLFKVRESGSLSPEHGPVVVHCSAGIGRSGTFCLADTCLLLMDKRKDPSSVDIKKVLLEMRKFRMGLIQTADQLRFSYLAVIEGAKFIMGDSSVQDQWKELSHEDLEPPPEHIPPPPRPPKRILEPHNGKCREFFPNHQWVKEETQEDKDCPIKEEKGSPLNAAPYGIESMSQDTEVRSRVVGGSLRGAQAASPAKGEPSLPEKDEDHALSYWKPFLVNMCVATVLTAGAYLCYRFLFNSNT
Method in brief: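 Enzyme (e.g. PTPN2 0.025 ng/ul) mixed about 2 min with compound at 10 serial concentrations in 50 mM HEPES pH 7.5, 150 mM NaCl, 0.5 mM EDTA, 1 mM DTT, 0.001% Tween-20 at room temperature. DiFMUP added at each enzyme's Km (about 45 μM for PTPN2). DiFMU fluorescence (ex 360/em 450 nm) followed 15-30 min; IC50 from 4-parameter fit of rates.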

PTPN2 (i.e., TC-PTP) = biological target: T2, PTPN2 (i.e., TC-PTP) (Homo sapiens, UniProt P17706); assay: Phosphatase activity assay (DiFMUP substrate), PTPN2; type: biochemical; conditions: compounds binned ≤1 uM or >1 uM
T2 sequence (P17706 1-415): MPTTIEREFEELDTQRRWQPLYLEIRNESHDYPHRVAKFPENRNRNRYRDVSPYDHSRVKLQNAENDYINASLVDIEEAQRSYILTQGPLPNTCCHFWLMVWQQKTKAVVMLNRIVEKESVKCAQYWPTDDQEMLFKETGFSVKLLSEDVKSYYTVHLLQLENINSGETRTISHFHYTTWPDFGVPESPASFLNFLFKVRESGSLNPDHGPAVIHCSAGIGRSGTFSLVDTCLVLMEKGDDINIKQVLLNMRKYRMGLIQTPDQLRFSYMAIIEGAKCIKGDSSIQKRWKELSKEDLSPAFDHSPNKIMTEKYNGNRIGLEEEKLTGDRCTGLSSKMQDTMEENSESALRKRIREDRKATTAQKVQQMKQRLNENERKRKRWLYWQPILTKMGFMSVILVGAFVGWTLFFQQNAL
Method in brief: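 First, serially diluted inhibitor is mixed about 2 minutes with enzyme in pH 7.5 HEPES/NaCl/EDTA/DTT/Tween-20 buffer. Next, DiFMUP is added at the enzyme's Km, approximately 45 μM for PTPN2. Finally, DiFMU appearance is read continuously at room temperature and rates are fitted for IC50.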

| IC50 (PTPN1 (i.e., PTP1B)) [µM] | IC50 (PTPN2 (i.e., TC-PTP)) [µM] | SMILES |
| --- | --- | --- |
| ≤ 1 | ≤ 1 | CC(O)c1cc(-c2ccc(O)c(N3CC(=O)NS3(=O)=O)c2F)[nH]n1 (stereo not shown) [Compound 462, 5-(2-fluoro-6-hydroxy-3-(3-(1-hydroxyethyl)-1H-pyrazol-5-yl)phenyl)-1,2,5-thiadiazolidin-3-one 1,1-dioxide] |
| ≤ 1 | ≤ 1 | COc1ncc(-c2ccc(O)c(N3CC(=O)NS3(=O)=O)c2F)cn1 [Compound 118, 5-(2-fluoro-6-hydroxy-3-(2-methoxypyrimidin-5-yl)phenyl)-1,2,5-thiadiazolidin-3-one 1,1-dioxide] |
| ≤ 1 | ≤ 1 | O=C1CN(c2c(O)ccc(-c3c[nH]cn3)c2F)S(=O)(=O)N1 [Compound 158, 5-(2-fluoro-6-hydroxy-3-(1H-imidazol-4-yl)phenyl)-1,2,5-thiadiazolidin-3-one 1,1-dioxide] |
| ≤ 1 | ≤ 1 | N=C(N)N1CC=C(c2ccc(O)c(N3CC(=O)NS3(=O)=O)c2F)C1 [Compound 502, 3-(3-(1,1-dioxido-4-oxo-1,2,5-thiadiazolidin-2-yl)-2-fluoro-4-hydroxyphenyl)-2,5-dihydro-1H-pyrrole-1-carboximidamide] |
| ≤ 1 | ≤ 1 | O=C1CN(c2c(O)ccc(-c3ccc(=O)n(Cc4ccccc4)c3)c2F)S(=O)(=O)N1 [Compound 220, 5-(3-(1-benzyl-6-oxo-1,6-dihydropyridin-3-yl)-2-fluoro-6-hydroxyphenyl)-1,2,5-thiadiazolidin-3-one 1,1-dioxide] |
| ≤ 1 | ≤ 1 | CC(C)CC1C=C(c2ccc(O)c(N3CC(=O)NS3(=O)=O)c2F)CN1 (stereo not shown) [Compound 531, 5-(2-fluoro-6-hydroxy-3-(5-isobutyl-2,5-dihydro-1H-pyrrol-3-yl)phenyl)-1,2,5-thiadiazolidin-3-one 1,1-dioxide] |
| ≤ 1 | ≤ 1 | CC(C)CCN1CCC=C(c2ccc(O)c(N3CC(=O)NS3(=O)=O)c2F)C1 [Compound 210, 5-(2-fluoro-6-hydroxy-3-(1-isopentyl-1,2,5,6-tetrahydropyridin-3-yl)phenyl)-1,2,5-thiadiazolidin-3-one 1,1-dioxide] |
| ≤ 1 | ≤ 1 | Cn1ccc(-c2cc(-c3ccc(O)c(N4CC(=O)NS4(=O)=O)c3F)[nH]n2)c1 [Compound 333, 5-(2-fluoro-6-hydroxy-3-(3-(1-methyl-1H-pyrrol-3-yl)-1H-pyrazol-5-yl)phenyl)-1,2,5-thiadiazolidin-3-one 1,1-dioxide] |
| ≤ 1 | ≤ 1 | O=C1CN(c2c(O)ccc(C3=CCC(NCC4CC4)CC3)c2F)S(=O)(=O)N1 (stereo not shown) [Compound 315, 5-(4′-((cyclopropylmethyl)amino)-2-fluoro-4-hydroxy-2′,3′,4′,5′-tetrahydro-[1,1′-biphenyl]-3-yl)-1,2,5-thiadiazolidin-3-one 1,1-dioxide] |
| ≤ 1 | ≤ 1 | CC1CC=C(c2ccc(O)c(N3CC(=O)NS3(=O)=O)c2F)CN1 (stereo not shown) [Compound 470, 5-(2-fluoro-6-hydroxy-3-(6-methyl-1,2,5,6-tetrahydropyridin-3-yl)phenyl)-1,2,5-thiadiazolidin-3-one 1,1-dioxide] |
| ≤ 1 | ≤ 1 | Cn1nc(-c2ccc(O)c(N3CC(=O)NS3(=O)=O)c2F)nc1C1CC1(F)F (stereo not shown) [Compound 540, 5-(3-(5-(2,2-difluorocyclopropyl)-1-methyl-1H-1,2,4-triazol-3-yl)-2-fluoro-6-hydroxyphenyl)-1,2,5-thiadiazolidin-3-one 1,1-dioxide] |
| ≤ 1 | ≤ 1 | N#CCCn1cc(-c2ccc(O)c(N3CC(=O)NS3(=O)=O)c2F)cn1 [Compound 204, 3-(4-(3-(1,1-dioxido-4-oxo-1,2,5-thiadiazolidin-2-yl)-2-fluoro-4-hydroxyphenyl)-1H-pyrazol-1-yl)propanenitrile] |
| ≤ 1 | ≤ 1 | Cn1ncc2cc(-c3ccc(O)c(N4CC(=O)NS4(=O)=O)c3F)cnc21 [Compound 156, 5-(2-fluoro-6-hydroxy-3-(1-methyl-1H-pyrazolo[3,4-b]pyridin-5-yl)phenyl)-1,2,5-thiadiazolidin-3-one 1,1-dioxide] |
| ≤ 1 | ≤ 1 | O=C1CN(c2c(O)ccc(-c3cc(CCCC(F)(F)F)n[nH]3)c2F)S(=O)(=O)N1 [Compound 255, 5-(2-fluoro-6-hydroxy-3-(3-(4,4,4-trifluorobutyl)-1H-pyrazol-5-yl)phenyl)-1,2,5-thiadiazolidin-3-one 1,1-dioxide] |
| ≤ 1 | ≤ 1 | O=C1CN(c2c(O)ccc(-c3c[nH]c(C4CC4)c3)c2F)S(=O)(=O)N1 [Compound 394, 5-(3-(5-cyclopropyl-1H-pyrrol-3-yl)-2-fluoro-6-hydroxyphenyl)-1,2,5-thiadiazolidin-3-one 1,1-dioxide] |
| ≤ 1 | ≤ 1 | NC(=O)C1(c2cc(-c3ccc(O)c(N4CC(=O)NS4(=O)=O)c3F)[nH]n2)CC1 [Compound 517, 1-(5-(3-(1,1-dioxido-4-oxo-1,2,5-thiadiazolidin-2-yl)-2-fluoro-4-hydroxyphenyl)-1H-pyrazol-3-yl)cyclopropane-1-carboxamide] |
| ≤ 1 | ≤ 1 | C=Cc1cc(-c2ccc(O)c(N3CC(=O)NS3(=O)=O)c2F)[nH]n1 [Compound 312, 5-(2-fluoro-6-hydroxy-3-(3-vinyl-1H-pyrazol-5-yl)phenyl)-1,2,5-thiadiazolidin-3-one 1,1-dioxide] |
| ≤ 1 | ≤ 1 | O=C1CN(c2c(O)ccc(-c3cnn(C4(C(F)F)CC4)c3)c2F)S(=O)(=O)N1 [Compound 542, 5-(3-(1-(1-(difluoromethyl)cyclopropyl)-1H-pyrazol-4-yl)-2-fluoro-6-hydroxyphenyl)-1,2,5-thiadiazolidin-3-one 1,1-dioxide] |
| ≤ 1 | ≤ 1 | O=C1CN(c2c(O)ccc(-c3cnn(Cc4cc(F)cc(F)c4)c3)c2F)S(=O)(=O)N1 [Compound 113, 5-(3-(1-(3,5-difluorobenzyl)-1H-pyrazol-4-yl)-2-fluoro-6-hydroxyphenyl)-1,2,5-thiadiazolidin-3-one 1,1-dioxide] |
| ≤ 1 | ≤ 1 | CC(C)CCS(=O)(=O)N1CC=C(c2ccc(O)c(N3CC(=O)NS3(=O)=O)c2F)C1 [Compound 338, 5-(2-fluoro-6-hydroxy-3-(1-(isopentylsulfonyl)-2,5-dihydro-1H-pyrrol-3-yl)phenyl)-1,2,5-thiadiazolidin-3-one 1,1-dioxide] |
| ≤ 1 | ≤ 1 | O=C1CN(c2c(O)ccc(-c3cn(-c4ccccc4)cn3)c2F)S(=O)(=O)N1 [Compound 190, 5-(2-fluoro-6-hydroxy-3-(1-phenyl-1H-imidazol-4-yl)phenyl)-1,2,5-thiadiazolidin-3-one 1,1-dioxide] |
| ≤ 1 | ≤ 1 | O=C1CN(c2c(O)ccc(-c3cnn(C4CN(C5CC5)C4)c3)c2F)S(=O)(=O)N1 [Compound 275, 5-(3-(1-(1-cyclopropylazetidin-3-yl)-1H-pyrazol-4-yl)-2-fluoro-6-hydroxyphenyl)-1,2,5-thiadiazolidin-3-one 1,1-dioxide] |
| ≤ 1 | ≤ 1 | O=C1CN(c2c(O)ccc(-c3cn(Cc4cccnc4)cn3)c2F)S(=O)(=O)N1 [Compound 457, 5-(2-fluoro-6-hydroxy-3-(1-(pyridin-3-ylmethyl)-1H-imidazol-4-yl)phenyl)-1,2,5-thiadiazolidin-3-one 1,1-dioxide] |
